In US20040010036A1, “N,N, -Substituted s-Aryl-Isothioureas, N,N,N, -Substituted s-Aryl-Isothioureas and combinatorial libraries thereof” (priority 2002, published 2004):

System: Streptococcus pyogenes (ATCC# 97-03 14289)
Assay: Anti-microbial screen (percent inhibition of growth, OD 570 nm)
Type: cell-based
Conditions: Conc 0.1776 mg ml
Protocol: Streptococcus pyogenes (ATCC# 97-03 14289) was grown in Todd Hewitt Broth (THB) (Difco Laboratories #0492-17-6) overnight until reaching an optical density of (OD=0.636@570 nm) by reading 0.1 ml in a 96 well microtiter plate in a Molecular Devices Thermomax. This preparation was kept frozen as stocks in 30% v/v glycerol in 1.5 ml aliquots at […] until use. Prior to experiments, 6 ml aliquots were thawed and diluted into 50 ml 2×THB. 60 ul of this dilution was added to 92 wells of microtiter plate. To three wells THB (200 ul) was added to serve as a blank and a sterility control. Test compounds in DMSO and appropriate concentrations of DMSO were added to Growth/Solvent Controls at 0 time. Plates were read at 0 time at 570 nm in the Molecular Devices plate reader to obtain compounds correction factors for insoluble or colored compounds. Plates were read again at 4 hours.
Percent inhibition is calculated with the following formula:
Color correct=O.D. 0 hr - Blank 0 hr)-(Solvent Control Ohr - Blank 0 hr) [formula]

[1] = Streptococcus pyogenes, Assay Spy4H, plates read at 570 nm at 0 time and at 4 hours
[2] = Spy4H: Streptococcus pyogenes, read at 4 hours, OD 570 nm

SMILES: COc1cccc(CN(Cc2ccc(O)cc2)/C(=N/c2ccc(C(F)(F)F)cc2)Sc2cccc(OC)c2)c1 [Cmpd 767]
- inhibition of growth at 177.6 µg/mL [1]: 52.4%

SMILES: COc1cccc(CN(Cc2ccc(O)cc2)/C(=N/c2cc(Cl)cc(Cl)c2)Sc2cccc(OC)c2)c1 [Cmpd 773]
- inhibition of growth at 177.6 µg/mL [2]: 68.4%

SMILES: COc1cccc(CN(Cc2ccc(O)cc2)/C(=N/c2ccc(Cl)c([N+](=O)[O-])c2)Sc2cccc(OC)c2)c1 [Cmpd 783]
- inhibition of growth at 177.6 µg/mL [1]: 54.5%

SMILES: COc1cccc(CN(Cc2ccc(O)cc2)/C(=N\c2ccc(Cl)c(C(F)(F)F)c2)Sc2cccc(OC)c2)c1 [Cmpd 793]
- inhibition of growth at 177.6 µg/mL [1]: 52.4%

SMILES: COc1cccc(CCN(Cc2cccc(O)c2)/C(=N/c2ccc(F)c(Cl)c2)Sc2ccccc2)c1 [Cmpd 814]
- inhibition of growth at 177.6 µg/mL [2]: 57.8%

SMILES: Cc1cccc(C/N=C(\Sc2ccccc2)N(Cc2cccc(O)c2)Cc2ccc(Cl)c(Cl)c2)c1 [Cmpd 842]
- inhibition of growth at 177.6 µg/mL [1]: 49.3%

SMILES: Oc1cccc(CN(Cc2ccc(Cl)c(Cl)c2)/C(=N/c2cccc(F)c2)Sc2ccccc2)c1 [Cmpd 843]
- inhibition of growth at 177.6 µg/mL [1]: 53.4%

SMILES: Oc1cccc(CN(Cc2ccc(Cl)c(Cl)c2)/C(=N/c2cccc(C(F)(F)F)c2)Sc2ccccc2)c1 [Cmpd 846]
- inhibition of growth at 177.6 µg/mL [1]: 49.3%

SMILES: Oc1cccc(CN(Cc2ccc(Cl)c(Cl)c2)/C(=N/c2ccc(C(F)(F)F)cc2)Sc2ccccc2)c1 [Cmpd 847]
- inhibition of growth at 177.6 µg/mL [2]: 90.3%

SMILES: Oc1cccc(CN(Cc2ccc(Cl)c(Cl)c2)/C(=N/c2cccc(Cl)c2)Sc2ccccc2)c1 [Cmpd 852]
- inhibition of growth at 177.6 µg/mL [1]: 50%

SMILES: Oc1cccc(CN(Cc2ccc(Cl)c(Cl)c2)/C(=N/c2cc(Cl)cc(Cl)c2)Sc2ccccc2)c1 [Cmpd 853]
- inhibition of growth at 177.6 µg/mL [2]: 60.2%

SMILES: Oc1cccc(CN(Cc2ccc(Cl)c(Cl)c2)/C(=N/c2ccc(F)c(Cl)c2)Sc2ccccc2)c1 [Cmpd 854]
- inhibition of growth at 177.6 µg/mL [1]: 55.8%

SMILES: O=[N+]([O-])c1ccccc1/N=C(\Sc1ccccc1)N(Cc1cccc(O)c1)Cc1ccc(Cl)c(Cl)c1 [Cmpd 866]
- inhibition of growth at 177.6 µg/mL [2]: 60.8%

SMILES: COc1ccc(C)cc1/N=C(\Sc1ccccc1)N(Cc1cccc(O)c1)Cc1ccc(Cl)c(Cl)c1 [Cmpd 869]
- inhibition of growth at 177.6 µg/mL [2]: 62.2%

SMILES: COc1cccc(CCN(Cc2ccc(O)cc2)/C(=N/c2ccc(F)c(Cl)c2)Sc2ccccc2)c1 [Cmpd 894]
- inhibition of growth at 177.6 µg/mL [2]: 57.7%

SMILES: COc1cccc(CCN(Cc2ccc(O)cc2)/C(=N/c2ccc(Cl)c([N+](=O)[O-])c2)Sc2ccccc2)c1 [Cmpd 903]
- inhibition of growth at 177.6 µg/mL [2]: 95.7%

SMILES: COc1cccc(S/C(=N\Cc2cccc(C)c2)N(CCc2ccc(F)cc2)Cc2cccc(O)c2)c1 [Cmpd 922]
- inhibition of growth at 177.6 µg/mL [2]: 84.3%

SMILES: COc1cccc(S/C(=N\c2cccc(F)c2)N(CCc2ccc(F)cc2)Cc2cccc(O)c2)c1 [Cmpd 923]
- inhibition of growth at 177.6 µg/mL [2]: 63.9%

SMILES: COc1cccc(S/C(=N\c2cccc(C(F)(F)F)c2)N(CCc2ccc(F)cc2)Cc2cccc(O)c2)c1 [Cmpd 926]
- inhibition of growth at 177.6 µg/mL [2]: 96%

SMILES: COc1cccc(S/C(=N\c2ccc(C(F)(F)F)cc2)N(CCc2ccc(F)cc2)Cc2cccc(O)c2)c1 [Cmpd 927]
- inhibition of growth at 177.6 µg/mL [1]: 49.4%

SMILES: COc1cccc(S/C(=N\c2cc(Cl)cc(Cl)c2)N(CCc2ccc(F)cc2)Cc2cccc(O)c2)c1 [Cmpd 933]
- inhibition of growth at 177.6 µg/mL [2]: 59.8%

SMILES: COc1cccc(S/C(=N\c2ccc(F)c(Cl)c2)N(CCc2ccc(F)cc2)Cc2cccc(O)c2)c1 [Cmpd 934]
- inhibition of growth at 177.6 µg/mL [2]: 94%

SMILES: COc1cccc(S/C(=N\c2ccc(C)c(Cl)c2)N(CCc2ccc(F)cc2)Cc2cccc(O)c2)c1 [Cmpd 935]
- inhibition of growth at 177.6 µg/mL [2]: 66.3%

SMILES: COc1cccc(/N=C(\Sc2cccc(OC)c2)N(CCc2ccc(F)cc2)Cc2cccc(O)c2)c1 [Cmpd 936]
- inhibition of growth at 177.6 µg/mL [1]: 56.3%

SMILES: COc1cccc(S/C(=N\c2ccc(Cl)c([N+](=O)[O-])c2)N(CCc2ccc(F)cc2)Cc2cccc(O)c2)c1 [Cmpd 943]
- inhibition of growth at 177.6 µg/mL [1]: 50.8%

SMILES: COc1cccc(S/C(=N/c2ccc(Cl)c(C(F)(F)F)c2)N(CCc2ccc(F)cc2)Cc2cccc(O)c2)c1 [Cmpd 953]
- inhibition of growth at 177.6 µg/mL [1]: 54.2%

SMILES: COCCN(Cc1ccc(O)cc1)/C(=N\c1cc(Cl)cc(Cl)c1)Sc1ccc(C)cc1C [Cmpd 1053]
- inhibition of growth at 177.6 µg/mL [2]: 66%

SMILES: COCCN(Cc1ccc(O)cc1)/C(=N\c1ccc(Cl)c([N+](=O)[O-])c1)Sc1ccc(C)cc1C [Cmpd 1063]
- inhibition of growth at 177.6 µg/mL [2]: 73.8%

SMILES: COCCN(Cc1ccc(O)cc1)/C(=N\c1ccccc1F)Sc1ccc(C)cc1C [Cmpd 1067]
- inhibition of growth at 177.6 µg/mL [1]: 53%

SMILES: COCCN(Cc1ccc(O)cc1)/C(=N\c1ccc(Cl)c(C(F)(F)F)c1)Sc1ccc(C)cc1C [Cmpd 1073]
- inhibition of growth at 177.6 µg/mL [1]: 54.4%

SMILES: COCCN(Cc1ccc(O)cc1)/C(=N\c1ccc(F)c(F)c1)Sc1ccc(C)cc1C [Cmpd 1076]
- inhibition of growth at 177.6 µg/mL [1]: 55.1%

SMILES: COc1cccc(CN(Cc2ccc(O)cc2)/C(=N/c2cc(Cl)cc(Cl)c2)Sc2cccc(C)c2)c1 [Cmpd 1093]
- inhibition of growth at 177.6 µg/mL [2]: 87.1%

SMILES: COc1cccc(CN(Cc2ccc(O)cc2)/C(=N/c2ccc(Cl)c([N+](=O)[O-])c2)Sc2cccc(C)c2)c1 [Cmpd 1103]
- inhibition of growth at 177.6 µg/mL [2]: 59.5%

SMILES: COc1cccc(CN(Cc2ccc(O)cc2)/C(=N/c2cc(C)ccc2OC)Sc2cccc(C)c2)c1 [Cmpd 1109]
- inhibition of growth at 177.6 µg/mL [2]: 57.8%

SMILES: COc1cccc(CN(Cc2ccc(O)cc2)/C(=N/c2ccc(Cl)c(C(F)(F)F)c2)Sc2cccc(C)c2)c1 [Cmpd 1113]
- inhibition of growth at 177.6 µg/mL [2]: 64.3%

SMILES: Cc1cccc(S/C(=N/c2ccc(C(F)(F)F)cc2)N(Cc2ccccc2)Cc2cccc(O)c2)c1 [Cmpd 1127]
- inhibition of growth at 177.6 µg/mL [2]: 88.6%

SMILES: Cc1cccc(S/C(=N\c2ccc(Cl)c(Cl)c2)N(Cc2ccccc2)Cc2cccc(O)c2)c1 [Cmpd 1128]
- inhibition of growth at 177.6 µg/mL [1]: 51.5%

SMILES: Cc1cccc(S/C(=N\c2cc(Cl)cc(Cl)c2)N(Cc2ccccc2)Cc2cccc(O)c2)c1 [Cmpd 1133]
- inhibition of growth at 177.6 µg/mL [2]: 70.1%

SMILES: Cc1cccc(S/C(=N\c2ccc(F)c(Cl)c2)N(Cc2ccccc2)Cc2cccc(O)c2)c1 [Cmpd 1134]
- inhibition of growth at 177.6 µg/mL [1]: 53.6%

SMILES: Cc1cccc(S/C(=N/c2ccc(Cl)c([N+](=O)[O-])c2)N(Cc2ccccc2)Cc2cccc(O)c2)c1 [Cmpd 1143]
- inhibition of growth at 177.6 µg/mL [2]: 97.1%

SMILES: Cc1cccc(S/C(=N\c2ccccc2[N+](=O)[O-])N(Cc2ccccc2)Cc2cccc(O)c2)c1 [Cmpd 1146]
- inhibition of growth at 177.6 µg/mL [1]: 56.4%

SMILES: COc1ccc(C)cc1/N=C(\Sc1cccc(C)c1)N(Cc1ccccc1)Cc1cccc(O)c1 [Cmpd 1149]
- inhibition of growth at 177.6 µg/mL [2]: 76%

SMILES: Cc1cccc(S/C(=N/c2ccc(Cl)c(C(F)(F)F)c2)N(Cc2ccccc2)Cc2cccc(O)c2)c1 [Cmpd 1153]
- inhibition of growth at 177.6 µg/mL [2]: 62.7%

SMILES: Cc1cccc(S/C(=N/c2ccc(OC(F)(F)F)cc2)N(Cc2ccccc2)Cc2cccc(O)c2)c1 [Cmpd 1155]
- inhibition of growth at 177.6 µg/mL [1]: 49.4%

SMILES: Cc1cccc(S/C(=N\c2ccc(F)c(F)c2)N(Cc2ccccc2)Cc2cccc(O)c2)c1 [Cmpd 1156]
- inhibition of growth at 177.6 µg/mL [2]: 59.5%

SMILES: Cc1cccc(S/C(=N\Cc2ccc(F)cc2)N(CCc2ccc(Cl)cc2)Cc2ccc(O)cc2)c1 [Cmpd 1164]
- inhibition of growth at 177.6 µg/mL [2]: 72.2%

SMILES: Cc1cccc(S/C(=N\c2ccc(C(F)(F)F)cc2)N(CCc2ccc(Cl)cc2)Cc2ccc(O)cc2)c1 [Cmpd 1167]
- inhibition of growth at 177.6 µg/mL [2]: 94.3%

SMILES: Cc1cccc(S/C(=N\c2ccc(Cl)c([N+](=O)[O-])c2)N(CCc2ccc(Cl)cc2)Cc2ccc(O)cc2)c1 [Cmpd 1183]
- inhibition of growth at 177.6 µg/mL [2]: 62.7%

SMILES: Cc1cccc(S/C(=N\c2ccccc2[N+](=O)[O-])N(CCc2ccc(Cl)cc2)Cc2ccc(O)cc2)c1 [Cmpd 1186]
- inhibition of growth at 177.6 µg/mL [1]: 52.9%

SMILES: Cc1cccc(S/C(=N\c2ccc(Cl)c(C(F)(F)F)c2)N(CCc2ccc(Cl)cc2)Cc2ccc(O)cc2)c1 [Cmpd 1193]
- inhibition of growth at 177.6 µg/mL [1]: 53.6%

SMILES: Cc1ccc(S/C(=N\c2ccc(Cl)c(C(F)(F)F)c2)N(Cc2ccc(O)cc2)Cc2ccc(Cl)c(Cl)c2)cc1 [Cmpd 1233]
- inhibition of growth at 177.6 µg/mL [2]: 61.5%

SMILES: Cc1ccc(S/C(=N\Cc2ccccc2)N(Cc2cccc(O)c2)CC2CCCCC2)c(C)c1 [Cmpd 1241]
- inhibition of growth at 177.6 µg/mL [2]: 68.2%

SMILES: Cc1cccc(C/N=C(\Sc2ccc(C)cc2C)N(Cc2cccc(O)c2)CC2CCCCC2)c1 [Cmpd 1242]
- inhibition of growth at 177.6 µg/mL [1]: 54.8%

SMILES: Cc1ccc(S/C(=N\Cc2ccc(F)cc2)N(Cc2cccc(O)c2)CC2CCCCC2)c(C)c1 [Cmpd 1244]
- inhibition of growth at 177.6 µg/mL [1]: 53.8%

SMILES: Cc1ccc(S/C(=N\c2ccc(F)cc2F)N(Cc2cccc(O)c2)CC2CCCCC2)c(C)c1 [Cmpd 1245]
- inhibition of growth at 177.6 µg/mL [1]: 53.8%

SMILES: Cc1ccc(S/C(=N\c2ccc(F)c(Cl)c2)N(Cc2cccc(O)c2)CC2CCCCC2)c(C)c1 [Cmpd 1254]
- inhibition of growth at 177.6 µg/mL [2]: 62.1%

SMILES: CCc1ccc(/N=C(\Sc2ccc(C)cc2C)N(Cc2cccc(O)c2)CC2CCCCC2)cc1 [Cmpd 1260]
- inhibition of growth at 177.6 µg/mL [2]: 57.3%

SMILES: CCOc1ccc(/N=C(/Sc2ccc(C)cc2C)N(Cc2cccc(O)c2)CC2CCCCC2)cc1 [Cmpd 1261]
- inhibition of growth at 177.6 µg/mL [1]: 51.9%

SMILES: Cc1ccc(S/C(=N/c2ccc(F)c([N+](=O)[O-])c2)N(Cc2cccc(O)c2)CC2CCCCC2)c(C)c1 [Cmpd 1262]
- inhibition of growth at 177.6 µg/mL [2]: 67.2%

SMILES: Cc1ccc(S/C(=N/c2ccc(Cl)c([N+](=O)[O-])c2)N(Cc2cccc(O)c2)CC2CCCCC2)c(C)c1 [Cmpd 1263]
- inhibition of growth at 177.6 µg/mL [1]: 56.7%

SMILES: Cc1ccc(S/C(=N\c2ccc(Cl)cc2)N(Cc2cccc(O)c2)CC2CCCCC2)c(C)c1 [Cmpd 1265]
- inhibition of growth at 177.6 µg/mL [2]: 88.3%

SMILES: Cc1ccc(S/C(=N/c2ccc(Cl)c(C(F)(F)F)c2)N(Cc2cccc(O)c2)CC2CCCCC2)c(C)c1 [Cmpd 1273]
- inhibition of growth at 177.6 µg/mL [1]: 52.2%
